# According to patent publication US20150299125A1, “PRODRUG BIPYRIDYLAMINOPYRIDINES AS SYK INHIBITORS” (MERCK SHARP & DOHME CORP., priority 2012, published 2015):
# Where two headings read alike, the source gives them in different places.
# How the values were obtained:
# [1] = Solubility in biorelevant fasted state simulated intestinal fluid (FaSSIF); type: physicochemical
# Experimental: Solubility in Biorelevant Fasted State Simulated Intestinal Fluid (FaSSIF):
# A 10 mM DMSO stock solution of compound to be tested is used. A 100 μM standard solution is generated by diluting 2.5 μL of the 10 mM stock solution with 247.5 μL of diluent (10% DMSO/10% MeCN/80% MeOH, v/v/v). A solubility solution is generated by diluting 5 μL of the 10 mM stock solution with 245 μL of FaSSIF (maximum solubility approximately 200 μM). […] The equilibrated solubility solution is filtered by centrifugation (3 minutes at 4000 rpm) using a 0.45 µm filter with a polypropylene membrane. The standard solution and the filtered equilibrated solubility solution are analyzed by HPLC/DAD. The solubility value is calculated by the following equation:
# Solubility=(Peak area of sample/Peak area of standard)(Standard concentration)
# [2] = target: T1, recombinant human GST-Syk (Homo sapiens, UniProt P43405); experiment: Homogeneous Time-Resolved Fluorescence (HTRF) assay for the recombinant human Syk enzyme; type: biochemical; conditions: recombinant human GST-Syk 5 pM, ATP 25 μM, read-out: IC50
# T1 construct: purchased Carna Biosciences 08-176
# Experimental: Syk inhibition of the compounds of Formula (I) may be determined using the following assay protocol: Homogeneous Time-Resolved Fluorescence (HTRF) Assay for the Recombinant Human Syk Enzyme: A recombinant GST-hSyk fusion protein was used to measure potency of compounds to inhibit human Syk activity. […] Final volume of the reaction was 10 μL. Phosphorylation of the peptide was allowed to proceed for 45' at room temperature. To quench the reaction and detect the phosphorylated product, 2 nM of a Europium-anti-phosphotyrosine antibody (Perkin Elmer #AD0161) and 70 nM SA-APC (Perkin-Elmer #CR130-100) were added together in 15 mM Tris pH 7.5, 40 mM EDTA, 0.01% tween 20. Final volume of the quenching solution was 10 μL. The resulting HTRF signal was measured after 30 minutes on a EnVision (Perkin-Elmer) reader using a time-resolved fluorescence protocol.
# [3] = 25 °C, fassif, kinetic from dmso stock, Solubility
structure (smiles),measurement,setting,value
"COCCN(C)C(=O)OC(C)OC(=O)[C@H]1CC[C@H]([C@@](C)(O)c2ccc(-c3cc(C)cc(Nc4cc(C(F)F)ccn4)n3)cn2)CC1 (single isomer, unassigned) [Example 4-1a]",solubility,[1]; [3],40 µM
same,IC50,[2],24.7 nM
"Cc1cc(Nc2cc(C(F)F)ccn2)nc(-c2ccc([C@](C)(O)[C@H]3CC[C@H](C(=O)OCC[S@+](C)[O-])CC3)nc2)c1 (single isomer, unassigned) [Example 7-1b]",solubility,[1]; [3],52 µM
same,IC50,[2],3.3 nM
"Cc1cc(Nc2cc(C(F)F)ccn2)nc(-c2ccc([C@](C)(O)[C@H]3CC[C@H](C(=O)OCOC(=O)OCC[S+](C)[O-])CC3)nc2)c1 (single isomer, unassigned) [Example 7-6]",solubility,[1]; [3],156 µM
same,IC50,[2],1 nM
"Cc1cc(Nc2cc(C(F)F)ccn2)nc(-c2ccc([C@](C)(O)[C@H]3CC[C@H](C(=O)O[C@H]4CC[C@@H](N)CC4)CC3)nc2)c1 [Example 1-2, cis-4-Aminocyclohexyl trans-4-[(1R)-1-(6-{[4-(difluoromethyl)pyridin-2-yl]amino}-4-methyl-2,3′-bipyridin-6′-yl)-1-hydroxyethyl]cyclohexanecarboxylate]",solubility,[1]; [3],114 µM
same,IC50,[2],4.2 nM
"Cc1cc(Nc2cc(C(F)F)ccn2)nc(-c2ccc([C@](C)(O)[C@H]3CC[C@H](C(=O)O[C@H]4C[C@H](N)C4)CC3)nc2)c1 [Example 1-5, trans-3-Aminocyclobutyl trans-4-[(1R)-1-(6-{[4-(difluoromethyl)pyridin-2-yl]amino}-4-methyl-2,3′-bipyridin-6′-yl)-1-hydroxyethyl]cyclohexanecarboxylate]",solubility,[1]; read-out: Solubility,164 µM
same,IC50,[2],4.4 nM
"CSCCCOC(=O)[C@H]1CC[C@H]([C@@](C)(O)c2ccc(-c3cc(C)cc(Nc4cc(C(F)F)ccn4)n3)cn2)CC1 [Example 1-9, 3-(methylsulfanyl)propyl trans-4-[(1R)-1-(6-{[4-(difluoromethyl)pyridin-2-yl]amino}-4-methyl-2,3′-bipyridin-6′-yl)-1-hydroxyethyl] cyclohexanecarboxylate]",solubility,[1]; [3],43 µM
same,IC50,[2],27.7 nM
"Cc1cc(Nc2cc(C(F)F)ccn2)nc(-c2ccc([C@](C)(O)[C@H]3CC[C@H](C(=O)OCc4nccn4C)CC3)nc2)c1 [Example 1-11, (1-methyl-1H-imidazol-2-yl)methyl trans-4-[(1R)-1-(6-{[4-(difluoromethyl)pyridin-2-yl]amino}-4-methyl-2,3′-bipyridin-6′-yl)-1-hydroxyethyl] cyclohexanecarboxylate]",solubility,[1]; [3],57 µM
same,IC50,[2],2.1 nM
"CCCC[N+](CCCC)(CCCC)COC(=O)[C@H]1CC[C@H]([C@@](C)(O)c2ccc(-c3cc(C)cc(Nc4cc(C(F)F)ccn4)n3)cn2)CC1 [Example 5-4, N,N-dibutyl-N-{[({trans-4-[(1R)-1-(6-{[4-(difluoromethyl)pyridin-2-yl]amino}-4-methyl-2,3′-bipyridin-6′-yl)-1-hydroxyethyl]cyclohexyl}carbonyl)oxy]methyl}butan-1-aminium]",IC50,[2],1.1 nM
"CCCCCCCC[N+](CCCCCCCC)(CCCCCCCC)COC(=O)[C@H]1CC[C@H]([C@@](C)(O)c2ccc(-c3cc(C)cc(Nc4cc(C(F)F)ccn4)n3)cn2)CC1 [Example 5-8, N-{[({trans-4-[(1R)-1-(6-{[4-(difluoromethyl)pyridin-2-yl]amino}-4-methyl-2,3′-bipyridin-6′-yl)-1-hydroxyethyl]cyclohexyl}carbonyl)oxy]methyl}-N,N-dioctyloctan-1-aminium]",IC50,[2],2.5 nM
"Cc1cc(Nc2cc(C(F)F)ccn2)nc(-c2ccc([C@](C)(O)[C@H]3CC[C@H](C(=O)OC[N+]4(C)CCC(F)(F)CC4)CC3)nc2)c1 [Example 5-13, 1-{[({trans-4-[(1R)-1-(6-{[4-(difluoromethyl)pyridin-2-yl]amino}-4-methyl-2,3′-bipyridin-6′-yl)-1-hydroxyethyl]cyclohexyl}carbonyl)oxy]methyl}-4,4-difluoro-1-methylpiperidinium]",IC50,[2],1.3 nM
"Cc1cc(Nc2cc(C(F)F)ccn2)nc(-c2ccc([C@](C)(O)[C@H]3CC[C@H](C(=O)OC[N+](C)(C)C(C)c4ccccc4)CC3)nc2)c1 (stereo partly drawn) [Example 5-15, N-{[({trans-4-[(1R)-1-(6-{[4-(difluoromethyl)pyridin-2-yl]amino}-4-methyl-2,3′-bipyridin-6′-yl)-1-hydroxyethyl]cyclohexyl}carbonyl)oxy]methyl}-N,N-dimethyl-1-phenylethanaminium]",IC50,[2],< 0.5 nM
"Cc1cc(Nc2cc(C(F)F)ccn2)nc(-c2ccc([C@](C)(O)[C@H]3CC[C@H](C(=O)OC[N+]4(CC#N)CCCCC4)CC3)nc2)c1 [Example 5-16, 1-(cyanomethyl)-1-{[({trans-4-[(1R)-1-(6-{[4-(difluoromethyl)pyridin-2-yl]amino}-4-methyl-2,3′-bipyridin-6′-yl)-1-hydroxyethyl]cyclohexyl}carbonyl)oxy]methyl}piperidinium]",IC50,[2],0.6 nM
"CCCC[N+](C)(CCCC)COC(=O)[C@H]1CC[C@H]([C@@](C)(O)c2ccc(-c3cc(C)cc(Nc4cc(C(F)F)ccn4)n3)cn2)CC1 [Example 5-18, N-butyl-N-{[({trans-4-[(1R)-1-(6-{[4-(difluoromethyl)pyridin-2-yl]amino}-4-methyl-2,3′-bipyridin-6′-yl)-1-hydroxyethyl]cyclohexyl}carbonyl)oxy]methyl}-N-methylbutan-1-aminium]",IC50,[2],1.4 nM
"CCOC(=O)C[N+](C)(C)COC(=O)[C@H]1CC[C@H]([C@@](C)(O)c2ccc(-c3cc(C)cc(Nc4cc(C(F)F)ccn4)n3)cn2)CC1 [Example 5-19, N-{[({trans-4-[(1R)-1-(6-{[4-(difluoromethyl)pyridin-2-yl]amino}-4-methyl-2,3′-bipyridin-6′-yl)-1-hydroxyethyl]cyclohexyl}carbonyl)oxy]methyl}-2-ethoxy-N,N-dimethyl-2-oxoethanaminium]",IC50,[2],0.8 nM
"Cc1cc(Nc2cc(C(F)F)ccn2)nc(-c2ccc([C@](C)(O)[C@H]3CC[C@H](C(=O)OC[N+](C)(C)CCc4ccccn4)CC3)nc2)c1 [Example 5-21, N-{[({trans-4-[(1R)-1-(6-{[4-(difluoromethyl)pyridin-2-yl]amino}-4-methyl-2,3′-bipyridin-6′-yl)-1-hydroxyethyl]cyclohexyl}carbonyl)oxy]methyl}-N,N-dimethyl-2-pyridin-2-ylethanaminium]",IC50,[2],< 0.5 nM
"CC[N+](CC)(COC(=O)[C@H]1CC[C@H]([C@@](C)(O)c2ccc(-c3cc(C)cc(Nc4cc(C(F)F)ccn4)n3)cn2)CC1)C1CCCCC1 [Example 5-22, N-{[({trans-4-[(1R)-1-(6-{[4-(difluoromethyl)pyridin-2-yl]amino}-4-methyl-2,3′-bipyridin-6′-yl)-1-hydroxyethyl]cyclohexyl}carbonyl)oxy]methyl}-N,N-diethylcyclohexanaminium]",IC50,[2],0.9 nM
"Cc1cc(Nc2cc(C(F)F)ccn2)nc(-c2ccc([C@](C)(O)[C@H]3CC[C@H](C(=O)OC[N+](C)(C4CCCCC4)C4CCCCC4)CC3)nc2)c1 [Example 5-24, N-cyclohexyl-N-{[({trans-4-[(1R)-1-(6-{[4-(difluoromethyl)pyridin-2-yl]amino}-4-methyl-2,3′-bipyridin-6′-yl)-1-hydroxyethyl]cyclohexyl}carbonyl)oxy]methyl}-N-methylcyclohexanaminium]",IC50,[2],1 nM
"Cc1cc(Nc2cc(C(F)F)ccn2)nc(-c2ccc([C@](C)(O)[C@H]3CC[C@H](C(=O)OC[N+]4(C)CCN(CCO)CC4)CC3)nc2)c1 [Example 5-28, 1-{[({trans-4-[(1R)-1-(6-{[4-(difluoromethyl)pyridin-2-yl]amino}-4-methyl-2,3′-bipyridin-6′-yl)-1-hydroxyethyl]cyclohexyl}carbonyl)oxy]methyl}-4-(2-hydroxyethyl)-1-methylpiperazin-1-ium]",IC50,[2],2.9 nM
"Cc1cc(Nc2cc(C(F)F)ccn2)nc(-c2ccc([C@](C)(O)[C@H]3CC[C@H](C(=O)OCn4ccnc4)CC3)nc2)c1 [Example 6-4, 1H-imidazol-1-ylmethyl trans-4-[(1R)-1-(6-{[4-(difluoromethyl)pyridin-2-yl]amino}-4-methyl-2,3′-bipyridin-6′-yl)-1-hydroxyethyl]cyclohexanecarboxylate]",solubility,[1]; [3],156 µM
"Cc1cc(Nc2cc(C(F)F)ccn2)nc(-c2ccc([C@](C)(O)[C@H]3CC[C@H](C(=O)OCC[S+](C)[O-])CC3)nc2)c1 (stereo partly drawn) [Example 7-3, 2-(methylsulfinyl)ethyl trans-4-[(1R)-1-(6-{[4-(difluoromethyl)pyridin-2-yl]amino}-4-methyl-2,3′-bipyridin-6′-yl)-1-hydroxyethyl]cyclohexane-carboxylate]",IC50,[2],3.3 nM
"Cc1cc(Nc2cc(C(F)F)ccn2)nc(-c2ccc([C@](C)(O)[C@H]3CC[C@H](C(=O)OCOC(=O)OCCS(C)(=O)=O)CC3)nc2)c1 [Example 7-7, ({[2-(methylsulfonyl)ethoxy]carbonyl}oxy)methyl trans-4-[(1R)-1-(6-{[4-(difluoromethyl)pyridin-2-yl]amino}-4-methyl-2,3′-bipyridin-6′-yl)-1-hydroxyethyl]cyclohexane-carboxylate]",IC50,[2],4.5 nM
